{"source": "patent EP1500403A1", "about": "“PREVENTIVE/REMEDY FOR DIABETES” (Ajinomoto Co., Inc., priority 2002, dated 2003)", "key": {"[1]": {"tested_on": "Male Wistar rats", "experiment": "Evaluation of urine sugar excretion action in rats (Test Example 1)", "type": "in vivo", "conditions": "100 mg/kg p.o. in olive oil, urine collected 24 hours, per individual per day", "description": "Male Wistar rats aged 5 weeks (purchased from Charles River Japan, Inc.) were acclimatized in metabolic cages for one week, for use at this experiment. The test compounds suspended in olive oil were prepared into a 20 mg/ml solution to a dose of 5 ml per 1 kg rat body weight.\nAfter the rats were starved for 4 hours, the test compounds were orally given at 100 mg/kg to the rats at 11 am. Immediately after dosing until 24 hours later, urine was collected. The volume of urine was measured. Then, urine sugar concentration was assayed by glucose oxidase method, to calculate the glucose excretion into urine per individual per day."}, "[2]": {"tested_on": "glucose-loaded rats", "experiment": "Blood glucose time course after oral glucose loading in rats (Example I)", "type": "in vivo", "conditions": "Wistar rats, glucose 1 g/kg p.o.", "description": "Wistar rats (age of 7 weeks; male) were divided into groups with matched body weights. After 17-hour starvation, glucose was orally given at 1 g/kg to the animals. Immediately after the administration, the inhibitor A of renal glucose reabsorption or the inhibitor B of renal glucose reabsorption (A at 30 mg/kg or 60 mg/kg; B at 30 mg/kg or 80 mg/kg) or glibenclamide (1 mg/kg or 2 mg/kg) or nateglinide (50 mg/kg or 80 mg/kg) was orally given. Additionally, a group on the combined use of both of an inhibitor of renal glucose reabsorption and a hypoglycemic agent was also prepared. A vehicle was orally given to a control group after glucose administration.\nBlood glucose was measured in a time course."}, "[3]": {"tested_on": "Type 2 diabetic model GK rats", "experiment": "Blood glucose after repeated once daily dosing in GK rats (Example III)", "type": "in vivo", "conditions": "once daily p.o., day 25, glibenclamide 3 mg/kg, inhibitor A 30 mg/kg, or both, vs vehicle-dosed group (Fig. 4)", "description": "These agents were orally given once daily at the same time period as in the group administered with a single one agent. Only a vehicle was given orally to a control group. On day 25 after the start of administration, blood glucose was assayed sequentially, to compare the groups in terms of the resulting blood glucose levels."}, "[4]": {"tested_on": "Type 2 diabetes model Zucker diabetic fatty rats", "experiment": "Insulin content in pancreas after repeated dosing in Zucker diabetic fatty rats, ELISA (Example V)", "type": "in vivo", "conditions": "twice daily p.o., day 39, starved 18 hours, inhibitor A 30 mg/kg, metformin 200 mg/kg, or both, ELISA of pancreas homogenates (Fig. 5)", "description": "The agents were orally given twice daily at the same time period as in the case of the groups administered with a single one of these agents. Only a vehicle was orally given twice daily to the animals in a control group. On day 39 from the start of administration, the animals were starved for 18 hours. Then, pancreas was resected from the animals, for the assay of insulin in pancreas homogenates by ELISA, to compare the groups in terms of insulin content in pancreas."}, "[5]": {"tested_on": "glucose-loaded mice", "experiment": "Blood glucose time course after oral glucose loading in KK mice (Example II)", "type": "in vivo", "conditions": "glucose 1 g/kg p.o.", "description": "KK mice (age of 25 weeks; male) fed with a commercially available high-calories feed for breeding (CMF; Oriental Yeast) were divided into groups with matched body weights. After starvation for 17 hours, glucose was orally given at 1 g/kg. Immediately thereafter, the inhibitor A of renal glucose reabsorption (30 mg/kg or 45 mg/kg) or metformin (200 mg/kg or 300 mg/kg) was orally given. Additionally, a group given with the inhibitor A of renal glucose reabsorption (30 mg/kg) and metformin (200 mg/kg) was prepared. A vehicle was orally given to a control group after glucose dosing.\nBlood glucose level was assayed in a time course."}, "[6]": {"tested_on": "Renal brush border membrane", "experiment": "Assessment of inhibitory action of glucose uptake, 14C-D-glucose (Test Example 1A)", "type": "biochemical, rat", "conditions": "incubation 37 °C 30 minutes, 14C-D-glucose one minute", "description": "Test compounds were dissolved in 100 mM mannitol-10 mM HEPES/Tris, pH 7.4 to prepare solutions at various concentrations.\nRenal brush border membrane was prepared from a rat kidney, to which a solution of a test compound was added for incubation at 37 °C for 30 minutes. Then, ^14C-D-glucose was added for incubation for one minute. A solution containing 1 mM phlorizin was used to terminate the glucose uptake reaction. The radioactivity ^14C of ^14C-D-glucose incorporated in the renal brush border membrane was counted with a liquid scintillation counter. The glucose uptake independent on sodium was reduced from the glucose uptake in a control group or a test group, to calculate the inhibition intensity."}, "[7]": {"conditions": "glibenclamide 1 mg/kg, inhibitor A 30 mg/kg, or both, p.o., vs vehicle group (Fig. 1)"}, "[8]": {"conditions": "inhibitor A 30 mg/kg p.o., vs control group (Fig. 3)"}}, "data": [{"smiles": "CCc1ccc(Cc2c(O[C@@H]3O[C@H](COC(=O)OC)[C@@H](O)[C@H](O)[C@H]3O)nn(C3CCC3)c2C(F)(F)F)cc1", "note": "[Compound of Production Example 2, 1'-cyclobutyl-4'-[(4-ethylphenyl)methyl]-5'-trifluoromethyl-1H-pyrazole-3'-o-(6-carbomethoxy)-β-D-glucopyranoside]", "values": [{"measurement": "Urine sugar excretion", "setting": "[1]", "result": 656, "unit": "mg"}]}, {"smiles": "CCc1ccc(Cc2c(O[C@@H]3O[C@H](CO)[C@@H](O)[C@H](O)[C@H]3O)nn(C3CCC3)c2C(F)(F)F)cc1", "note": "[1'-cyclobutyl-4'-[(4-ethylphenyl)methyl]-5'-trifluoromethyl-1H-pyrazole-3'-o-β-D-glucopyranoside]", "values": [{"measurement": "blood glucose level 120 minutes after glucose loading and thereafter", "setting": "[2]; [7]", "result": "did not lower the blood glucose level 120 minutes after glucose loading and thereafter as greatly as glibenclamide did"}, {"measurement": "hyperglycemia / blood glucose level immediately after glucose loading (30 minutes)", "setting": "[2]; [7]", "result": "suppressed hyperglycemia"}, {"measurement": "pattern of glycemic suppression at increased dose", "setting": "[2]; glibenclamide 2 mg/kg or inhibitor A 60 mg/kg p.o., vs lower dose (Fig. 1)", "result": "did not change"}, {"measurement": "blood glucose level", "setting": "[3]", "result": "significantly lowered"}, {"measurement": "insulin content in pancreas", "setting": "[4]", "result": "no difference was observed"}, {"measurement": "blood glucose level 2 hours later and thereafter", "setting": "[5]; [8]", "result": "could not suppress the blood glucose level"}, {"measurement": "hyperglycemia 60 minutes after glucose loading", "setting": "[5]; [8]", "result": "could suppress hyperglycemia"}, {"measurement": "increase of blood glucose / hyperglycemia 30 minutes after glucose loading", "setting": "[5]; metformin 200 mg/kg or inhibitor A 30 mg/kg p.o., vs control group (Fig. 3)", "result": "could suppress hyperglycemia"}, {"measurement": "pattern of glycemic suppression at elevated dose", "setting": "[5]; metformin 300 mg/kg or inhibitor A 45 mg/kg p.o., vs lower dose (Fig. 3)", "result": "did not change"}]}, {"smiles": "CSc1ccc(Cc2c(O[C@@H]3O[C@H](CO)[C@@H](O)[C@H](O)[C@H]3O)n[nH]c2C(F)(F)F)cc1", "note": "[Compound of Production Example 1-A, 4-((4-methylthiophenyl)methyl)-5-(trifluoromethyl)-1H-pyrazole-3-o-β-D-glucopyranoside]", "values": [{"measurement": "Inhibition intensity (concentration of test compound)", "setting": "[6]; 10 µM test compound", "result": "84 % (10 µM)"}]}, {"smiles": "CCc1ccc(Cc2c(O[C@@H]3O[C@H](C(=O)O)[C@@H](O)[C@H](O)[C@H]3O)n[nH]c2C(F)(F)F)cc1", "note": "[Compound of Production Example 2-A, 4-((4-ethylphenyl)methyl)-5-(trifluoromethyl)-1H-pyrazol-3-yl-β-D-glucopyranoside uronic acid]", "values": [{"measurement": "Inhibition intensity (concentration of test compound)", "setting": "[6]; 100 µM test compound", "result": "30 % (100 µM)"}]}, {"smiles": "CCc1ccc(Cc2c(O[C@@H]3O[C@H](COC(=O)OC)[C@@H](O)[C@H](O)[C@H]3O)nn(C3CCCC3)c2C(F)(F)F)cc1", "note": "[Compound of Production Example 4, 1'-cyclopentyl-4'-[(4-ethylphenyl)methyl]-5'-trifluoromethyl-1H-pyrazole-3'-o-(6-carbomethoxy)-β-D-glucopyranoside]", "values": [{"measurement": "Urine sugar excretion", "setting": "[1]", "result": 452, "unit": "mg"}]}]}
